Where a name gives a salt, the structure may show the parent alone.
Experiments:
[1] = Inhibitory concentration against alpha-L-Fucosidase of human placenta
[2] = Inhibitory activity against alpha-L-Fucosidase of bovine epididymis expressed as Ki
[3] = Inhibitory concentration against alpha-L-Fucosidase of bovine epididymis
[4] = Inhibitory activity against alpha-L-fucosidase of bovine epididymis expressed as Ki
[5] = In vitro inhibition of alpha-L-fucosidase isolated from bovine kidney.
[6] = biological target: alpha-L-fucosidase (Bacillus sp. K40T); assay: Inhibitory activity against alpha-L-fucosidase of bacillus species (K40T) expressed as Ki

Row | Ki [1] | SMILES | other results
1 | 9 µM | C[C@H]1N[C@H](CO)[C@H](O)[C@@H]1O | –
2 | 0.016 µM | CC1CN[C@@H](N)[C@H](O)C1O (stereo partly drawn) [(2R,3S)-2-Amino-5-methyl-piperidine-3,4-diol] | –
3 | 0.82 µM | CC1N=C(NN)[C@@H](O)[C@H](O)C1O (stereo partly drawn) [(4R,5R)-6-Hydrazino-2-methyl-2,3,4,5-tetrahydro-pyridine-3,4,5-triol] | –
4 | 15 µM | CC1C(N)C(O)[C@H](O)C1O (stereo partly drawn) [(R)-4-Amino-5-methyl-cyclopentane-1,2,3-triol] | –
5 | 0.68 µM | CC1C(NCc2ccccc2)C(O)[C@H](O)C1O (stereo partly drawn) [(R)-4-Benzylamino-5-methyl-cyclopentane-1,2,3-triol] | –

Further lines, the compound ahead of its results:

Row | SMILES | Ki [1] | other results
6 | C[C@@H]1N[C@@H](CO)[C@H](O)[C@@H]1O | 1.4 µM | –
7 | CC1NCC(O)C1O (stereo unspecified) [2-Methyl-pyrrolidine-3,4-diol] | 2 µM | –
8 | CC1NC(S(=O)(=O)O)C(O)C1O (stereo unspecified) [3,4-Dihydroxy-5-methyl-pyrrolidine-2-sulfonic acid] | 0.01 µM | –
9 | COC(=O)c1cc(C2NCC(O)C2O)oc1C (stereo unspecified) [5-(3,4-Dihydroxy-pyrrolidin-2-yl)-2-methyl-furan-3-carboxylic acid methyl ester] | – | Ki [2]: 6.5 µM; IC50 [3]: 100 µM
10 | CCCCNC1N[C@@H](CO)C(O)[C@@H](O)[C@@H](CO)N1 (stereo partly drawn) [(6S,7R)-2-Butylamino-4,7-bis-hydroxymethyl-[1,3]diazepane-5,6-diol; trifluoroacetate] | 2.8 µM | –
11 | OC1CN(Cc2ccccc2)C[C@@H](O)C(O)C1O (stereo partly drawn) [(R)-1-Benzyl-azepane-3,4,5,6-tetraol] | – | Ki [4]: 23.4 µM
12 | C=CCOC1OC(CO)C(O)C(O)[C@H]1OC1SC(C)C(O)[C@@H](O)C1O (stereo partly drawn) [(R)-2-((R)-2-Allyloxy-4,5-dihydroxy-6-hydroxymethyl-tetrahydro-pyran-3-yloxy)-6-methyl-tetrahydro-thiopyran-3,4,5-triol] | – | Ki [5]: 30 µM; Ki [6]: 0.21 µM
13 | CC1SC(Sc2ccc([N+](=O)[O-])cc2)C(O)[C@H](O)C1O (stereo partly drawn) [(R)-2-Methyl-6-(4-nitro-phenylsulfanyl)-tetrahydro-thiopyran-3,4,5-triol] | 3.3 µM | –
14 | CC(=O)NCC1NCC(O)[C@@H](O)[C@@H]1O (stereo partly drawn) [N-((3R,4R)-3,4,5-Trihydroxy-piperidin-2-ylmethyl)-acetamide] | 4 µM | –

Reference: BindingDB's records for doi:10.1016/s0960-894x(01)00497-8 (Universidad De Sevilla, 2001)
